From ChEMBL document CHEMBL1201862, “PubChem BioAssay data set” (2004)
Activity calls are given as the source filed them.

Tests used:
[1] = biological target: T1, Mannose-6-phosphate isomerase (Homo sapiens, UniProt P34949); experiment: PMI enzyme inhibitors, confirmation, biochemical, fluorescence intensity (AID 1535)
T1 sequence (P34949 whole entry): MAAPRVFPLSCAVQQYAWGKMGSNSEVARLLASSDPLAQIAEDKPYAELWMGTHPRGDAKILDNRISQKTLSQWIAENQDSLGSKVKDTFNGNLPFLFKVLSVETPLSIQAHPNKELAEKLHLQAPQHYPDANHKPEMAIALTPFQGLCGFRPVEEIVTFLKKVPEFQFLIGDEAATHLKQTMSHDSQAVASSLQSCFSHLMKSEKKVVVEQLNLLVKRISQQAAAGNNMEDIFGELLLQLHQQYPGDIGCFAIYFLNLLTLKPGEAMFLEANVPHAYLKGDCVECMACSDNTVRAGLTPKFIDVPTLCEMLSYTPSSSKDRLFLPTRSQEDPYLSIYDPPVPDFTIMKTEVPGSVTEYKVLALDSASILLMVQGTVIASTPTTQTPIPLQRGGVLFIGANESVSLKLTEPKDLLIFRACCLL

Large T antigen = Large T antigen (Simian virus 40, UniProt P03070); type: functional, Betapolyomavirus macacae;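 note: Confirmatory-stage PubChem screen for compounds that inhibit SV40 T antigen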
Large T antigen, sequence (P03070 whole entry): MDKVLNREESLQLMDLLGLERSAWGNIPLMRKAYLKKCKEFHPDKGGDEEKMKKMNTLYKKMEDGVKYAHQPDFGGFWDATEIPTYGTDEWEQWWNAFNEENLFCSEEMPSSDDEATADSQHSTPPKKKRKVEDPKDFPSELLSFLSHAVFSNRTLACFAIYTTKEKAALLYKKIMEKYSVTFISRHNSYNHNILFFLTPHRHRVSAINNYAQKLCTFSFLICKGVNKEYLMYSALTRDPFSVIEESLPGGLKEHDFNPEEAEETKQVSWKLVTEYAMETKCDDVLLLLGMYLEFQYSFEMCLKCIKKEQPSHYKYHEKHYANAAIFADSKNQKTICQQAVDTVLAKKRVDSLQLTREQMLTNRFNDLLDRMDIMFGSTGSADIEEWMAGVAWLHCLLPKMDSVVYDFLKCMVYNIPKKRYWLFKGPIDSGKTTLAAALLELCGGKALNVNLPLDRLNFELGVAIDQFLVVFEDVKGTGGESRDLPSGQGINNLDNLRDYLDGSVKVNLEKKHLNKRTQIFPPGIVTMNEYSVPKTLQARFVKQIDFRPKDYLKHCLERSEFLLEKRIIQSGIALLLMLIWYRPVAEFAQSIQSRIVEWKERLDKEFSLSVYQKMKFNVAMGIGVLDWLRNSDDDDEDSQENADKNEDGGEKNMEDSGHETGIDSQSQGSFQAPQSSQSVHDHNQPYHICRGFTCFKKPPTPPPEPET

Phosphomannomutase 2 = Phosphomannomutase 2 (Homo sapiens, UniProt O15305); experiment: Counter screen SAR assay for PMM2 inhibitors via a fluorescence intensity assay. [Related pubchem assays (depositor defined):AID1545, AID1574]
Phosphomannomutase 2, sequence (O15305 whole entry): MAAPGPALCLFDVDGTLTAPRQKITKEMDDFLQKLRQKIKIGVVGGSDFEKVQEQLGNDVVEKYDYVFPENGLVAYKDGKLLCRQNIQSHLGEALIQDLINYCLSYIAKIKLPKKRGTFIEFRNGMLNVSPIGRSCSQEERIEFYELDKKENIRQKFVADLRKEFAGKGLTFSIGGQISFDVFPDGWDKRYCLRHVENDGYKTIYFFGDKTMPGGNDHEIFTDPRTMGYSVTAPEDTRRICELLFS

[2] = biological target: Potassium voltage-gated channel subfamily KQT member 2 (Rattus norvegicus, UniProt O88943); experiment: KCNQ2 channel activators, analog series, SAR follow-up, automated patch clamp, KCNQ2-CHO cells (AID 493113); type: functional
Potassium voltage-gated channel subfamily KQT member 2, sequence (O88943 whole entry): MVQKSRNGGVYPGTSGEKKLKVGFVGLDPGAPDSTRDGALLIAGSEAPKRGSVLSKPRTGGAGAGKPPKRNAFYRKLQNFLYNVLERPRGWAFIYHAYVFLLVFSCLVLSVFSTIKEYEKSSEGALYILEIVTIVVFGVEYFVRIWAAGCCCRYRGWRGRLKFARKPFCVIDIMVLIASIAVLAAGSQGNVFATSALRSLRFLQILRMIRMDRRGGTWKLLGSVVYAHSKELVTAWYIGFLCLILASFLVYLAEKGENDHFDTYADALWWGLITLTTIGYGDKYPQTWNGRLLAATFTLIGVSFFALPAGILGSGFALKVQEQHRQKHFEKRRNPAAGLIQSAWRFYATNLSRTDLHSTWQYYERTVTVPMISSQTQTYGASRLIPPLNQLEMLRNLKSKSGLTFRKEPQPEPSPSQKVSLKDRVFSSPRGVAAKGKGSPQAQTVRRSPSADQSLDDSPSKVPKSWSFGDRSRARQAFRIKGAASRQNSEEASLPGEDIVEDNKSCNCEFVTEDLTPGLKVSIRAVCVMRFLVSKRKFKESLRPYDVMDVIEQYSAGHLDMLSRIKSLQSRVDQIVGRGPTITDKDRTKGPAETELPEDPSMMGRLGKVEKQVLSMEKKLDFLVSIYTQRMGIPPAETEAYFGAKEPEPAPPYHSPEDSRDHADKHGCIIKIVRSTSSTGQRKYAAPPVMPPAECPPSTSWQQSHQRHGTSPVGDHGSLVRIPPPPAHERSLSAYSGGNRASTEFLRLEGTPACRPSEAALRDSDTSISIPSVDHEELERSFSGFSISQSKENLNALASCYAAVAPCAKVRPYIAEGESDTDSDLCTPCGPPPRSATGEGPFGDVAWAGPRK

[3] = biological target: T2, Replicative DNA helicase DnaB (Mycobacterium tuberculosis, UniProt P9WMR3); experiment: DnaB intein splicing inhibitors, dose response, biochemical, cell-free fluorescence (AID 449749); type: functional
T2 sequence (P9WMR3 whole entry): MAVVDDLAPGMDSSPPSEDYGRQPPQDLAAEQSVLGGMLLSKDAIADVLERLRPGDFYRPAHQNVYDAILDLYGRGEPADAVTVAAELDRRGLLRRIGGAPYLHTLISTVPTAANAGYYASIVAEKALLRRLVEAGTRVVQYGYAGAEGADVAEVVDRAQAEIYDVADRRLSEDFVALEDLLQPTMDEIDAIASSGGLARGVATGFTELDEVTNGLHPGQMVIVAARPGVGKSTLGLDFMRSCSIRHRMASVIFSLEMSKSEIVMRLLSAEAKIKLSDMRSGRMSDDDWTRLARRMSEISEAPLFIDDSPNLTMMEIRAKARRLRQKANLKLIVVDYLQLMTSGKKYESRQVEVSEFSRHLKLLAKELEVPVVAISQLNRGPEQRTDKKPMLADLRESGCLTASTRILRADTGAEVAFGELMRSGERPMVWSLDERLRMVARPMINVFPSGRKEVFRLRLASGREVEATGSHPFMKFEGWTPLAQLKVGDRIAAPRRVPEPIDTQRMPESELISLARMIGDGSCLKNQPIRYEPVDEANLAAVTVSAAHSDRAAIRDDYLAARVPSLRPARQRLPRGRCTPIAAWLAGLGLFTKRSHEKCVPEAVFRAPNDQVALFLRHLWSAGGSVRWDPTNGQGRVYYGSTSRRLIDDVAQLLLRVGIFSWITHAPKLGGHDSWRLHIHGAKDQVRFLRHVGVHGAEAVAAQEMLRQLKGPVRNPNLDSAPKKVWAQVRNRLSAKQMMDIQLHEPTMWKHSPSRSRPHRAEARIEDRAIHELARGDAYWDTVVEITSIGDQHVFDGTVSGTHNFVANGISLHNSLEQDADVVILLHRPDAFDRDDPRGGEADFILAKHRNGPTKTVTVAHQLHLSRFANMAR

[4] = biological target: T1, Mannose-6-phosphate isomerase; experiment: human PMI inhibitors, high substrate, primary screen, biochemical, fluorescence intensity, high mannose 6-phosphate (AID 1220)
[5] = biological target: T3, Histone-lysine N-methyltransferase NSD2 (Homo sapiens, UniProt O96028); type: biochemical
T3 sequence (O96028 whole entry): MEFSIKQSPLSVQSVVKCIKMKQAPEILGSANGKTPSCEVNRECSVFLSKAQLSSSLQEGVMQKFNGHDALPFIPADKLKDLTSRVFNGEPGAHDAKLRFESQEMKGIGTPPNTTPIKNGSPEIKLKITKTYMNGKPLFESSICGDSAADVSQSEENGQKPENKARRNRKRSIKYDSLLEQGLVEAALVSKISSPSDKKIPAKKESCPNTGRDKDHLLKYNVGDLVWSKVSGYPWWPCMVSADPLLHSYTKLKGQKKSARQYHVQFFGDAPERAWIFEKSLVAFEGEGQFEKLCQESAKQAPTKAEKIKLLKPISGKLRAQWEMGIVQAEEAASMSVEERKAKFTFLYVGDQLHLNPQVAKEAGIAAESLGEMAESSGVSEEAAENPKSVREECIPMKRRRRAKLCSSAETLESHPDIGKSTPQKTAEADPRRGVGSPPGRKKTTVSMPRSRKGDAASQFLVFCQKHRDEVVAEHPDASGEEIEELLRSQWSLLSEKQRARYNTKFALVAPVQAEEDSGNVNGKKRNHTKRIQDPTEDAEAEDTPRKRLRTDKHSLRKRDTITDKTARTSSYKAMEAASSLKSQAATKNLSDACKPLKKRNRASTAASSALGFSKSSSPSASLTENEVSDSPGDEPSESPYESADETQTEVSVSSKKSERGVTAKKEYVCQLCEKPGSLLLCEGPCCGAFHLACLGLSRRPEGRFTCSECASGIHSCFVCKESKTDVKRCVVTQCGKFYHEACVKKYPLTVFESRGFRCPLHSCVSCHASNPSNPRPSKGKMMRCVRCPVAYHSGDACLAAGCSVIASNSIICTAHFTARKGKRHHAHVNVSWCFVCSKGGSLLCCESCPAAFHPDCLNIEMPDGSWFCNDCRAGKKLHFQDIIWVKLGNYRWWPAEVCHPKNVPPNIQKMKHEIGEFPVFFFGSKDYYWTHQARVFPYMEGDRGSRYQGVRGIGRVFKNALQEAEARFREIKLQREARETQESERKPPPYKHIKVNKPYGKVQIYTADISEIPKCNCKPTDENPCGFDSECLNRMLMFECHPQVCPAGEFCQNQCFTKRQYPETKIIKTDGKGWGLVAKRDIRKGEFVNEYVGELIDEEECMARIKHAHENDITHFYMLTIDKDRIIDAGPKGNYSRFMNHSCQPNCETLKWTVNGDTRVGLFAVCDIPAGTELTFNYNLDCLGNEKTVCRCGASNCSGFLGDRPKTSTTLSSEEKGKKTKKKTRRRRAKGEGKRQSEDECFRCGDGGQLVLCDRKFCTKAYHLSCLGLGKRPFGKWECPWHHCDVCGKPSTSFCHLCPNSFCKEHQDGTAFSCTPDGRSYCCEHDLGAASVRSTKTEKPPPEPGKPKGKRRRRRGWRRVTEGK

Protein RecA = biological target: T4, Protein RecA (Mycobacterium tuberculosis, UniProt P9WHJ3); experiment: Fluorescence Cell-Free Homogeneous Dose Retest to Identify Inhibitors of RecA-Intein Splicing Activity. [Related pubchem assays (depositor defined):AID2097, AID2223, AID489010, AID492950]; type: functional
T4 sequence (P9WHJ3 whole entry): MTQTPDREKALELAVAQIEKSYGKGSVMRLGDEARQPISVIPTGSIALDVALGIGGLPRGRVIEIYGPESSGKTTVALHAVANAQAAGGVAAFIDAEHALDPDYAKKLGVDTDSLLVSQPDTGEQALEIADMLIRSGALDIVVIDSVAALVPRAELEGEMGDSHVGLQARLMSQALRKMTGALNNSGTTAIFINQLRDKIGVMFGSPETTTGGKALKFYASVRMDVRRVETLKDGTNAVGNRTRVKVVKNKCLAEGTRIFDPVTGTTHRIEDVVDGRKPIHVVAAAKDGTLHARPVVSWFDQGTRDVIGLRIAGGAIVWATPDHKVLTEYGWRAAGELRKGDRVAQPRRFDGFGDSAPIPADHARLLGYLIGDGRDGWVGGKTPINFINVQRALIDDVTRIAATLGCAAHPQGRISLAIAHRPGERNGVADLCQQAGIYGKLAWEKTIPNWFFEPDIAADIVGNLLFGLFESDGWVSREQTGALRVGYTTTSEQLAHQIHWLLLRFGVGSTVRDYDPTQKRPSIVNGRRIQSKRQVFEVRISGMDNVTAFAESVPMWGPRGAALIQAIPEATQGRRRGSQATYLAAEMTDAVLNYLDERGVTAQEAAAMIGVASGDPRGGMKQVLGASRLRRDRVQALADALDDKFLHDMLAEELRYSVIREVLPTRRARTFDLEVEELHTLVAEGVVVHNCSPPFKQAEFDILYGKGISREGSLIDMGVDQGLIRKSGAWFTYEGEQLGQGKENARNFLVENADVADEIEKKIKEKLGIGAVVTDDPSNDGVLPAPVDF

[6] = biological target: Lysine-specific demethylase 4C (Homo sapiens, UniProt Q9H3R0); experiment: GASC-1 (JMJD2C) histone demethylase inhibitors, dose response, biochemical, DELFIA europium, cherry-picked samples (AID 488835); type: functional
Lysine-specific demethylase 4C, sequence (Q9H3R0 whole entry): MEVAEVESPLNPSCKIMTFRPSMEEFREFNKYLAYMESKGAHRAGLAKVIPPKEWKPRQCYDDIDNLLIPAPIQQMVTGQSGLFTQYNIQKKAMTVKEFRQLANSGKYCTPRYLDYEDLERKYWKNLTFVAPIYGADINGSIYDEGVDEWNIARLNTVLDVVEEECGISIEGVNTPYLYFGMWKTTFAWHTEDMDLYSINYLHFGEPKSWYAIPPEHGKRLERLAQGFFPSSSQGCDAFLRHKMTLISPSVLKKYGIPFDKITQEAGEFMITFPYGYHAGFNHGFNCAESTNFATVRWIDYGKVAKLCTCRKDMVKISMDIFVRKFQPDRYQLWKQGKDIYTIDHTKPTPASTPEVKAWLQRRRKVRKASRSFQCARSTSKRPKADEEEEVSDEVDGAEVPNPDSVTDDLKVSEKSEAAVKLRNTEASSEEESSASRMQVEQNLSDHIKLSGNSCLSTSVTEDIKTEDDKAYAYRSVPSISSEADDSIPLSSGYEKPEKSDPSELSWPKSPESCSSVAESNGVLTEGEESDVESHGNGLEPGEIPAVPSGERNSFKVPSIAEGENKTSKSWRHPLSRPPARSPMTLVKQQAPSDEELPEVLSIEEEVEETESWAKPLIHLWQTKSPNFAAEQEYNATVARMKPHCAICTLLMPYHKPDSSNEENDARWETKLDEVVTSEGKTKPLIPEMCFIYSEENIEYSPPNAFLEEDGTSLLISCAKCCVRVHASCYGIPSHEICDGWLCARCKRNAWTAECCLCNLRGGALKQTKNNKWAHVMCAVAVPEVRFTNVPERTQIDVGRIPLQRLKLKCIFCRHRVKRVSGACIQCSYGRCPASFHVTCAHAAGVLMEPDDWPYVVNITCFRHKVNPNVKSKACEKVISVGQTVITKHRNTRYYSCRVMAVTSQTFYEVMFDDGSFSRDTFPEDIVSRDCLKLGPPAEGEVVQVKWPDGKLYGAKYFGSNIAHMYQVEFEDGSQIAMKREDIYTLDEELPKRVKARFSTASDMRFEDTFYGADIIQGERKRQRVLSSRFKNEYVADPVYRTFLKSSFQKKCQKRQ

With CCOc1ccc(-c2n[nH]c(=S)[nH]2)cc1 the IC50 [1] was 39.1 µM (active), the IC50 (Large T antigen) was > 100 µM (active) and the IC50 (Phosphomannomutase 2) was > 100 µM (inactive).

In the case of Cc1cc(C)c(NC(=O)CCC2CCCC2)c(C)c1, the EC50 [2] is reported as 0.49 µM (active).

Cc1nnc(N/N=C\c2ccc(-c3ccccc3[N+](=O)[O-])o2)n1N was tested, and the AC50 [3] was 58.9 µM (active), the IC50 [4] was > 50 µM (not active) and the AC50 [5] was 10.3 µM (active). The EC50 (Protein RecA) was 23.5 µM (active) and the AC50 [6] was 7.3 µM (active).
